Where a name gives a salt, the structure may show the parent alone.
Target: T1, human orexin-2 (hOX2) receptor (Homo sapiens, UniProt O43614)
T1 construct: expressed in transfected cells
T1 sequence (O43614 1-444): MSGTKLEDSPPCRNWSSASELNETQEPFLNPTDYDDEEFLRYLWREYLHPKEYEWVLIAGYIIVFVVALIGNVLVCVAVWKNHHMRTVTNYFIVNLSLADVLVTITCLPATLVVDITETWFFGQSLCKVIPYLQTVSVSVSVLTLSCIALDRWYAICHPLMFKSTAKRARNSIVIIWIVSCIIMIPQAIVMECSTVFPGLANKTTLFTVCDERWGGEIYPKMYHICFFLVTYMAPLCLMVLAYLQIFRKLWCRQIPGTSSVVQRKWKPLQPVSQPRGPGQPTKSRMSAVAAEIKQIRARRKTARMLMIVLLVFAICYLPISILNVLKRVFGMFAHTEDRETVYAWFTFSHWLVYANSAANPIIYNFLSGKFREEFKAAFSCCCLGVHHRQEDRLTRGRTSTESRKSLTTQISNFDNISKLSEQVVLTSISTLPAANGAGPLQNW
Test: Intracellular Ca2+ mobilization assay (FLIPR), CHO(dHFr-) cells expressing hOX2, orexin-A at EC80 as agonist
Type: cell-based
Conditions: Kb=IC50/(1+[A]/EC50); CHO(dHFr-)-OX2R cells, antagonist applied 25 min before orexin-A EC80
In short: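 Fluo-4-loaded CHO(dHFr−) cells stably expressing hOX2 were preincubated 25 min at 37 °C with antagonist (11 concentrations, 0.0001–10 μM), then challenged with orexin-A at its daily-determined EC80. Peak fluorescence over basal read by FLIPR; IC50 from Hill fit, Kb via Kb=IC50/(1+[A]/EC50).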

Structure (SMILES)	Kb
Cc1ccc(N(CCc2cccc(Cl)c2)C(=O)[C@@H](N)c2ccccc2)cc1C [Example 183, (S)-2-Amino-N-[2-(3-chloro-phenyl)-ethyl]-N-(3,4-dimethyl-phenyl)-2-phenyl-acetamide hydrochloride]	0.0496 µM
Cc1ccc(N(CCc2cccc(C(F)(F)F)c2)C(=O)[C@@H](N)c2ccccc2)cc1C [Example 184, (S)-2-Amino-N-(3,4-dimethyl-phenyl)-2-phenyl-N-[2-(3-trifluoromethyl-phenyl)-ethyl]-acetamide hydrochloride]	0.0249 µM
Cc1ccc(N(CCc2ccccc2C)C(=O)[C@@H](N)c2ccccc2)cc1C [Example 185, (S)-2-Amino-N-(3,4-dimethyl-phenyl)-2-phenyl-N-(2-o-tolyl-ethyl)-acetamide hydrochloride]	0.0305 µM
Cc1ccc(N(CCc2ccc(C(F)(F)F)c(F)c2)C(=O)[C@@H](N)c2ccccc2)cc1C [Example 186, (S)-2-Amino-N-(3,4-dimethyl-phenyl)-N-[2-(3-fluoro-4-trifluoromethyl-phenyl)-ethyl]-2-phenyl-acetamide hydrochloride]	0.0156 µM
Cc1ccc(N(CCc2ccc(F)c(C(F)(F)F)c2)C(=O)[C@@H](N)c2ccccc2)cc1C [Example 187, (S)-2-Amino-N-(3,4-dimethyl-phenyl)-N-[2-(4-fluoro-3-trifluoromethyl-phenyl)-ethyl]-2-phenyl-acetamide hydrochloride]	0.0327 µM
Cc1ccc(N(CCc2ccc(F)cc2F)C(=O)[C@@H](N)c2ccccc2)cc1C [Example 188, (S)-2-Amino-N-[2-(2,4-difluoro-phenyl)-ethyl]-N-(3,4-dimethyl-phenyl)-2-phenyl-acetamide hydrochloride]	0.0269 µM
Cc1ccc(N(CCc2ccc(F)c(F)c2)C(=O)[C@@H](N)c2ccccc2)cc1C [Example 189, (S)-2-Amino-N-[2-(3,4-difluoro-phenyl)-ethyl]-N-(3,4-dimethyl-phenyl)-2-phenyl-acetamide hydrochloride]	0.0071 µM
Cc1ccc(N(CCc2ccc(C)c(F)c2)C(=O)[C@@H](N)c2ccccc2)cc1C [Example 190, (S)-2-Amino-N-(3,4-dimethyl-phenyl)-N-[2-(3-fluoro-4-methyl-phenyl)-ethyl]-2-phenyl-acetamide hydrochloride]	0.0091 µM
Cc1ccc(N(CCc2cccc(F)c2F)C(=O)[C@@H](N)c2ccccc2)cc1C [Example 191, (S)-2-Amino-N-[2-(2,3-difluoro-phenyl)-ethyl]-N-(3,4-dimethyl-phenyl)-2-phenyl-acetamide hydrochloride]	0.0215 µM
Cc1ccc(N(CCc2ccc(Cl)cc2F)C(=O)[C@@H](N)c2ccccc2)cc1C [Example 192, (S)-2-Amino-N-[2-(4-chloro-2-fluoro-phenyl)-ethyl]-N-(3,4-dimethyl-phenyl)-2-phenyl-acetamide; hydrochloride]	0.0148 µM
Cc1ccc(N(CCc2cc(C(F)(F)F)ccc2F)C(=O)[C@@H](N)c2ccccc2)cc1C [Example 193, (S)-2-Amino-N-(3,4-dimethyl-phenyl)-N-[2-(2-fluoro-5-trifluoromethyl-phenyl)-ethyl]-2-phenyl-acetamide; hydrochloride]	0.016 µM
COc1ccccc1CCN(C(=O)[C@@H](N)c1ccccc1)c1ccc(C)c(C)c1 [Example 194, (S)-2-Amino-N-(3,4-dimethyl-phenyl)-N-[2-(2-methoxy-phenyl)-ethyl]-2-phenyl-acetamide hydrochloride]	0.0052 µM
Cc1ccc(N(CCc2cccc(C(F)(F)F)c2F)C(=O)[C@@H](N)c2ccccc2)cc1C [Example 195, (S)-2-Amino-N-(3,4-dimethyl-phenyl)-N-[2-(2-fluoro-3-trifluoromethyl-phenyl)-ethyl]-2-phenyl-acetamide hydrochloride]	0.0176 µM
Cc1ccc(N(CCc2ccc(C(F)(F)F)cc2F)C(=O)[C@@H](N)c2ccccc2)cc1C [Example 196, (S)-2-Amino-N-(3,4-dimethyl-phenyl)-N-[2-(2-fluoro-4-trifluoromethyl-phenyl)-ethyl]-2-phenyl-acetamide hydrochloride]	0.0171 µM
Cc1ccc(N(CCc2ccc(C(F)(F)F)c(F)c2F)C(=O)[C@@H](N)c2ccccc2)cc1C [Example 197, (S)-2-Amino-N-[2-(2,3-difluoro-4-trifluoromethyl-phenyl)-ethyl]-N-(3,4-dimethyl-phenyl)-2-phenyl-acetamide hydrochloride]	0.0067 µM
Cc1ccc(N(CCc2ccccc2)C(=O)[C@@H](N)c2ccccc2)cc1C [Example 199, (S)-2-Amino-N-(3,4-dimethyl-phenyl)-N-phenethyl-2-phenyl-acetamide hydrochloride]	0.0489 µM

Structure (SMILES)	Kb
Cc1ccc(N(CCc2ccc(Cl)c(F)c2)C(=O)[C@@H](N)c2ccccc2)cc1C [Example 200, (S)-2-Amino-N-[2-(4-chloro-3-fluoro-phenyl)-ethyl]-N-(3,4-dimethyl-phenyl)-2-phenyl-acetamide hydrochloride]	0.0143 µM
Cc1ccc(N(CCc2cc(F)cc(C(F)(F)F)c2)C(=O)[C@@H](N)c2ccccc2)cc1C [Example 201, (S)-2-Amino-N-(3,4-dimethyl-phenyl)-N-[2-(3-fluoro-5-trifluoromethyl-phenyl)-ethyl]-2-phenyl-acetamide hydrochloride]	0.247 µM
Cc1ccc(N(CCc2c(F)cc(C(F)(F)F)c(F)c2F)C(=O)[C@@H](N)c2ccccc2)cc1C [Example 202, (S)-2-Amino-N-(3,4-dimethyl-phenyl)-2-phenyl-N-[2-(2,3,6-trifluoro-4-trifluoromethyl-phenyl)-ethyl]-acetamide hydrochloride]	0.0015 µM
Cc1ccc(N(CCc2cc(Cl)ccc2Cl)C(=O)[C@@H](N)c2ccccc2)cc1C [Example 203, (S)-2-Amino-N-[2-(2,5-dichloro-phenyl)-ethyl]-N-(3,4-dimethyl-phenyl)-2-phenyl-acetamide hydrochloride]	0.0996 µM
Cc1ccc(N(CCc2cccc(Cl)c2F)C(=O)[C@@H](N)c2ccccc2)cc1C [Example 204, (S)-2-Amino-N-[2-(3-chloro-2-fluoro-phenyl)-ethyl]-N-(3,4-dimethyl-phenyl)-2-phenyl-acetamide hydrochloride]	0.0178 µM
Cc1ccc(N(CCc2ccc(Cl)cc2Cl)C(=O)[C@@H](N)c2ccccc2)cc1C [Example 205, (S)-2-Amino-N-[2-(2,4-dichloro-phenyl)-ethyl]-N-(3,4-dimethyl-phenyl)-2-phenyl-acetamide hydrochloride]	0.0829 µM
Cc1ccc(N(CCc2cccc(O)c2)C(=O)[C@@H](N)c2ccccc2)cc1C [Example 206, (S)-2-Amino-N-(3,4-dimethyl-phenyl)-N-[2-(3-hydroxy-phenyl)-ethyl]-2-phenyl-acetamide hydrochloride]	0.0469 µM
Cc1ccc(N(CCc2cc(F)cc(F)c2)C(=O)[C@@H](N)c2ccccc2)cc1C [Example 208, (S)-2-Amino-N-[2-(3,5-difluoro-phenyl)-ethyl]-N-(3,4-dimethyl-phenyl)-2-phenyl-acetamide hydrochloride]	0.0231 µM
Cc1ccc(N(CCc2cc(F)cc(Cl)c2)C(=O)[C@@H](N)c2ccccc2)cc1C [Example 209, (S)-2-Amino-N-[2-(3-chloro-5-fluoro-phenyl)-ethyl]-N-(3,4-dimethyl-phenyl)-2-phenyl-acetamide hydrochloride]	0.0486 µM
Cc1ccc(N(CCc2ccc(OC(F)F)cc2)C(=O)[C@@H](N)c2ccccc2)cc1C [Example 210, (S)-2-Amino-N-[2-(4-difluoromethoxy-phenyl)-ethyl]-N-(3,4-dimethyl-phenyl)-2-phenyl-acetamide hydrochloride]	0.0077 µM
Cc1ccc(N(CCc2c(F)cc(C(F)(F)F)c(F)c2F)C(=O)/C(=N/O)c2ccccc2)cc1C [Example 211, N-(3,4-Dimethyl-phenyl)-2-[hydroxyimino]-2-phenyl-N-[2-(2,3,6-trifluoro-4-trifluoromethyl-phenyl)-ethyl]-acetamide]	0.0222 µM
Cc1ccc(N(CCc2ccc(C#N)cc2)C(=O)[C@@H](N)c2ccccc2)cc1C [Example 212, (S)-2-Amino-N-[2-(4-cyano-phenyl)-ethyl]-N-(3,4-dimethyl-phenyl)-2-phenyl-acetamide hydrochloride]	0.0343 µM
Cc1ccc(N(CCc2ccc(F)c(F)c2)C(=O)C(N)c2ccc(Cl)s2)cc1C (centres unmarked) [Example 214, 2-Amino-2-(5-chloro-thiophen-2-yl)-N-[2-(3,4-difluoro-phenyl)-ethyl]-N-(3,4-dimethyl-phenyl)-acetamide hydrochloride]	0.0966 µM
Cc1ccc(N(CCc2ccc(F)c(F)c2)C(=O)C(N)c2ccsc2)cc1C (centres unmarked) [Example 216, 2-Amino-N-[2-(3,4-difluoro-phenyl)-ethyl]-N-(3,4-dimethyl-phenyl)-2-thiophen-3-yl-acetamide hydrochloride]	0.0302 µM
Cc1ccc(N(CCc2ccc(C(F)(F)F)cc2)C(=O)C(=O)c2ccccc2)cc1C [Example 218, N-(3,4-Dimethyl-phenyl)-2-oxo-2-phenyl-N-[2-(4-trifluoromethyl-phenyl)-ethyl]-acetamide]	0.0555 µM
Cc1ccc(N(CCc2ccc(C(F)(F)F)cc2)C(=O)Cn2c(C)nc3ccccc32)cc1C [Example 236, N-(3,4-Dimethyl-phenyl)-2-(2-methyl-benzoimidazol-1-yl)-N-[2-(4-trifluoromethyl-phenyl)-ethyl]-acetamide]	0.076 µM
